Several values for one entry are separate records, joined by “and”; a condition that tells them apart may be missing. Equal values may be shown once.
Key:
[1] = Stability in microsomes, mouse; type: in vitro ADME; conditions: for average DEG [%]: mouse microsomes, with cofactors
Protocol: The final incubation volume was 500 μL. Two control compounds (verapamil and donepezil) were included for each microsomal species, along with the appropriate vehicle control. The reactions were terminated by transferring 50 μL of incubate to 100 μL methanol containing an internal standard (metoprolol) at appropriate time points (0, 10, 20, 40, 60, and 120 min for the test compound and 0, 5, 10, 20, 40, and 60 min for the control compounds). The termination plates were centrifuged at 4000 x g at 4°C for 30 min to precipitate the protein. The supernatants were then collected for analysis, and LC-MS/MS was used for detection purposes. The system consisted of an Acquity™ Binary Solvent Manager, Acquity™ 4-position heated column manager, 2777 Ultra High Pressure Autosampler, and a Xevo-TQ MS triple quadrupole mass spectrometer (Waters Ltd., Herts, UK). This process was carried out twice.

OAT2v1 = target: T1, OAT2v1 (Homo sapiens, UniProt Q9Y694); assay: Uptake transporter inhibition assay, OAT2v1; type: cell-based; conditions: for Accumulation (counts per minute; CPM) HEK293FT-MOCK / Accumulation (counts per minute; CPM) HEK293FT-OAT2v1: OAT2v1
T1 construct: expressed in transfected cells; host or cells: HEK cells
T1 sequence (Q9Y694 1-546 isoform Q9Y694-2): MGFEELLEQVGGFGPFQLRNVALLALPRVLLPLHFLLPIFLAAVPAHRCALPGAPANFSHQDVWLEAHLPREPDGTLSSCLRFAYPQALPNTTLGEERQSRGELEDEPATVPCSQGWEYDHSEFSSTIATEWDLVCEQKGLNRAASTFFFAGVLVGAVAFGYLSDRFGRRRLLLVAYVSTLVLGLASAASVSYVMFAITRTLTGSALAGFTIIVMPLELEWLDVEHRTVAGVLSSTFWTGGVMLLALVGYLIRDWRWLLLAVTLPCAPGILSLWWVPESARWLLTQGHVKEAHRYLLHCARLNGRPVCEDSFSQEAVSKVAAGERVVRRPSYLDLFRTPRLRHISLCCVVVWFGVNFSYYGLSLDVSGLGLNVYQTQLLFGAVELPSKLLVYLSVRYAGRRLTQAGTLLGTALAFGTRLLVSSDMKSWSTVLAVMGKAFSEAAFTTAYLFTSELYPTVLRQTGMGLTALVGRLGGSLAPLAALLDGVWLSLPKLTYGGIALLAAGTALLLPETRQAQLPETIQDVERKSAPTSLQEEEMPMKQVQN
Protocol: For the uptake transporter inhibition assay, cells were washed twice with 100 μL of the appropriate buffer (HK, pH 7.4) for OATP1B1, followed by HBSS (pH 7.4) for (NTCP, OAT1, OAT2v1, OATP1A2, and OATP1B3). Uptake experiments were carried out at 37 ± 1°C in 50 μL of the respective buffer containing the probe substrate and the compound or solvent.

MRP3 = MRP3 (Homo sapiens, UniProt O15438); assay: Vesicular transport inhibition assay, MRP3; conditions: for Accumulation (counts per minute; CPM) with AMP / Accumulation (counts per minute; CPM) with ATP: MRP3;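 further: membrane vesicles with radiolabelled probe substrate and 2 mM glutathione, 4 mM ATP versus AMP background control, vesicle-trapped substrate quantified by liquid scintillation counting after filtration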;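 on Accumulation (counts per minute; CPM) with AMP: ATP 4 mM vs AMP background separates transporter uptake from diffusion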;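 on Accumulation (counts per minute; CPM) with ATP: ATP 4 mM vs AMP background separates transporter uptake from diffusion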
MRP3, sequence (O15438 whole entry, the tested form may be a part): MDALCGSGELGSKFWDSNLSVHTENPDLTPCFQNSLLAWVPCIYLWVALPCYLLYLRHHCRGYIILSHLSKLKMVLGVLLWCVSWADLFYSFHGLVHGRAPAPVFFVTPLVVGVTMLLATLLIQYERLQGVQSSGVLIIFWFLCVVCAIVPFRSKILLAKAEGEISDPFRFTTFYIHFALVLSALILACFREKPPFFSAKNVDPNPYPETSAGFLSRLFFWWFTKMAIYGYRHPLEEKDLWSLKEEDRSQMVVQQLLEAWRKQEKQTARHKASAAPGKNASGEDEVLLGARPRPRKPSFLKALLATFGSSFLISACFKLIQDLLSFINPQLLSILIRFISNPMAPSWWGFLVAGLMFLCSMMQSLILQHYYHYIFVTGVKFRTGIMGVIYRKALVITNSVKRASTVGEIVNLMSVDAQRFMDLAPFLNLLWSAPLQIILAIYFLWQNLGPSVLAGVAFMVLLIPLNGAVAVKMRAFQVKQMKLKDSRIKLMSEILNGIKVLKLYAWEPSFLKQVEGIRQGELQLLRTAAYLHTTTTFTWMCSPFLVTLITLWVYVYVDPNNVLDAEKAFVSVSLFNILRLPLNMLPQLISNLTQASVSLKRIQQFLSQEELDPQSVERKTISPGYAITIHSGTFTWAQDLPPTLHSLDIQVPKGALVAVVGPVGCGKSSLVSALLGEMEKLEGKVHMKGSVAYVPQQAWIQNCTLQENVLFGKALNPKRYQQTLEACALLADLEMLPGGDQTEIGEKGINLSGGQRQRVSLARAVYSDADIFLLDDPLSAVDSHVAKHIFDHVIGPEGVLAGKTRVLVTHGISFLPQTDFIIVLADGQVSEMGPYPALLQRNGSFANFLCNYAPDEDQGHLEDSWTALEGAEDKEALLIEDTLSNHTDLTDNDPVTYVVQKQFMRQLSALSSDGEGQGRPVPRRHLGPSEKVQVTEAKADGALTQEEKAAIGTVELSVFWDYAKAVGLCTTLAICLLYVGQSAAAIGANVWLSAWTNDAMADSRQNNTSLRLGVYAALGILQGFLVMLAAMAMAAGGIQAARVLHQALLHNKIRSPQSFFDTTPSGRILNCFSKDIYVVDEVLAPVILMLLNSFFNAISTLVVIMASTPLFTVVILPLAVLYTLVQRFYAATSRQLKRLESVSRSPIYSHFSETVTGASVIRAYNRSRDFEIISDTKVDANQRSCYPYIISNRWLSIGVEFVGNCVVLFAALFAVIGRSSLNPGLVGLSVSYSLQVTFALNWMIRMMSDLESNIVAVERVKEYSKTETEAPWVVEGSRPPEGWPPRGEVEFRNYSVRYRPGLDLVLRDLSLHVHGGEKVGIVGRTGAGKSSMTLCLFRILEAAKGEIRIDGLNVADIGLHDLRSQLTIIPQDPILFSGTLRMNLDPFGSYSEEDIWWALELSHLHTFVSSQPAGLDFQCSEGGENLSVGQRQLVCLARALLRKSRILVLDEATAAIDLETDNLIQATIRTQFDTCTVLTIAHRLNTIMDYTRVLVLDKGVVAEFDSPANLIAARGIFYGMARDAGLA
Protocol: In the vesicular transport inhibition assay (for BSEP, MRP) compounds were incubated with membrane vesicle preparations and the probe substrate. Incubations were carried out in the presence of 4 mM ATP or AMP to distinguish between transporter-mediated uptake and passive diffusion into the vesicles. For MRP2 and MRP3, reactions were carried out in the presence of 2 mM glutathione. Compounds were added to the reaction mixture in 0.75 μL of solvent (1% of the final incubation volume). […] Reactions were initiated by the addition of 25 μL of 12 mM MgATP (or 12 mM AMP in assay buffer as a background control) and preincubated separately. Reactions were quenched by the addition of 200 μL of ice-cold washing buffer and immediate filtration via glass fiber filters mounted on a 96-well plate (filter plate). The filters were washed (5 × 200 μL of ice-cold washing buffer), dried, and the amount of substrate inside the filtered vesicles was determined by liquid scintillation counting.

HepG2 cells = assay: Respiration in hepatocytes (Seahorse XF Mito stress test); type: cell-based, human
OAT1 = target: T2, OAT1 (Homo sapiens, UniProt Q4U2R8); assay: Uptake transporter inhibition assay, OAT1; conditions: for Accumulation (counts per minute; CPM) HEK293FT-MOCK / Accumulation (counts per minute; CPM) HEK293FT-OAT1: OAT1;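 further: HEK293FT cells expressing OAT1 or mock, uptake of radiolabeled probe substrate at 37 °C in HBSS pH 7.4 with test compound or solvent, cell lysate read by liquid scintillation counting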
T2 sequence (Q4U2R8 1-563): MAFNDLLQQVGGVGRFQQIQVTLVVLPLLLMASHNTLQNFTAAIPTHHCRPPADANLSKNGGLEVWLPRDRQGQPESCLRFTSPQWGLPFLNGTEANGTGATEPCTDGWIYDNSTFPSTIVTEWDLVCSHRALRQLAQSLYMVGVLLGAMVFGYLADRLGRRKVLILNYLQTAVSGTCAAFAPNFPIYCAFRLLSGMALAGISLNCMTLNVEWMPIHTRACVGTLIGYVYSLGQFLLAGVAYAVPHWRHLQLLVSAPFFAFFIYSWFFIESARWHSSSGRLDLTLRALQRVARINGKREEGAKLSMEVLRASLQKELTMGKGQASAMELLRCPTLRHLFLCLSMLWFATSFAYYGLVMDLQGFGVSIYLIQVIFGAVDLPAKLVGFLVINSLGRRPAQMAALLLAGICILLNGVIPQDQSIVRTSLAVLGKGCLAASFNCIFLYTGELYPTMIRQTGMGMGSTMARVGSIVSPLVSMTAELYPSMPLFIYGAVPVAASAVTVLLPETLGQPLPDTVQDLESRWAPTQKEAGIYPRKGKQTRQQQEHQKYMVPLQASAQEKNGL
Protocol: For the uptake transporter inhibition assay, cells were washed twice with 100 μL of the appropriate buffer (HK, pH 7.4) for OATP1B1, followed by HBSS (pH 7.4) for (NTCP, OAT1, OAT2v1, OATP1A2, and OATP1B3). Uptake experiments were carried out at 37 ± 1°C in 50 μL of the respective buffer containing the probe substrate and the compound or solvent. […] After the experiment, cells were washed twice with 100 μL of cold appropriate buffer and lysed with 50 μL of 0.1 M NaOH. Radiolabeled probe substrate transport was determined by measuring an aliquot (35 μL) from each well for liquid scintillation counting.

[2] = Mouse (CD) microsomes, mean n = 2

With `Cc1cc(OCCCS(C)(=O)=O)cc(C)c1-c1cccc(COc2ccc3c(c2)OC[C@H]3CC(=O)O)c1` [TAK-875, fasiglifam, reference compound] as the compound, how does the half-life at 3 μM [1, 2] read?
The half-life at 3 μM was 5.72 h.

What about the microsomal CLint at 3 μM [1, 2] of the same compound?
Its microsomal CLint at 3 μM is 4 µL/min/mg.

What about the “average DEG [%]” value ([1]; 0 min) of the same compound?
The value was 100.0%.

What about the “average DEG [%]” value ([1]; 20 min) of the same compound?
The value was 83.6%.

And the “average DEG [%]” value ([1]; 40 min)?
Its value is 92.9%.

And the “average DEG [%]” value ([1]; 60 min)?
The value was 79.0%.

What about the “Accumulation (counts per minute; CPM) HEK293FT-MOCK” value (OAT2v1; conc 0.10 µM) of the same compound?
The value was 37 CPM and 25 CPM.

What about the “Accumulation (counts per minute; CPM) HEK293FT-OAT2v1” value (OAT2v1; conc 0.10 µM) of the same compound?
The value was 4606 CPM and 4412 CPM.

And the “Accumulation (counts per minute; CPM) HEK293FT-MOCK” value (OAT2v1; conc 0.30 µM)?
The value was 30 CPM.

What about the “Accumulation (counts per minute; CPM) HEK293FT-OAT2v1” value (OAT2v1; conc 0.30 µM) of the same compound?
Its value is 4740 CPM and 4495 CPM.

And the “Accumulation (counts per minute; CPM) HEK293FT-MOCK” value (OAT2v1; conc 1.00 µM)?
Its value is 33 CPM.

And the “Accumulation (counts per minute; CPM) HEK293FT-OAT2v1” value (OAT2v1; conc 1.00 µM)?
Its value is 4344 CPM and 4183 CPM.

What about the “Accumulation (counts per minute; CPM) HEK293FT-MOCK” value (OAT2v1; conc 3.00 µM) of the same compound?
The value was 34 CPM and 20 CPM.

What about the “Accumulation (counts per minute; CPM) HEK293FT-OAT2v1” value (OAT2v1; conc 3.00 µM) of the same compound?
The value was 4050 CPM and 3892 CPM.

What about the “Accumulation (counts per minute; CPM) HEK293FT-MOCK” value (OAT2v1; conc 10.00 µM) of the same compound?
Its value is 25 CPM and 18 CPM.

And the “Accumulation (counts per minute; CPM) HEK293FT-OAT2v1” value (OAT2v1; conc 10.00 µM)?
Its value is 3715 CPM and 3589 CPM.

And the “Accumulation (counts per minute; CPM) HEK293FT-MOCK” value (OAT2v1; conc 30.00 µM)?
Its value is 47 CPM and 27 CPM.

What about the “Accumulation (counts per minute; CPM) HEK293FT-OAT2v1” value (OAT2v1; conc 30.00 µM) of the same compound?
The value was 3019 CPM and 2844 CPM.

What about the “Accumulation (counts per minute; CPM) HEK293FT-MOCK” value (OAT2v1; conc 100.00 µM) of the same compound?
The value was 24 CPM and 30 CPM.

And the “Accumulation (counts per minute; CPM) HEK293FT-OAT2v1” value (OAT2v1; conc 100.00 µM)?
Its value is 1943 CPM and 1847 CPM.

And the IC50 (OAT2v1; transformed HEK cells, up to 300μM, n = 2)?
The IC50 was 62.8 µM.

And the IC50 (MRP3)?
Its IC50 is 31.8 µM.

What about the “Accumulation (counts per minute; CPM) with AMP” value (MRP3; conc 0.07 µM) of the same compound?
Its value is 151 CPM and 146 CPM.

And the “Accumulation (counts per minute; CPM) with ATP” value (MRP3; conc 0.07 µM)?
The value was 3266 CPM and 3317 CPM.

What about the “Accumulation (counts per minute; CPM) with AMP” value (MRP3; conc 0.21 µM) of the same compound?
The value was 149 CPM and 132 CPM.

And the “Accumulation (counts per minute; CPM) with ATP” value (MRP3; conc 0.21 µM)?
Its value is 3233 CPM and 3776 CPM.

What about the “Accumulation (counts per minute; CPM) with AMP” value (MRP3; conc 0.62 µM) of the same compound?
The value was 197 CPM and 169 CPM.

What about the “Accumulation (counts per minute; CPM) with ATP” value (MRP3; conc 0.62 µM) of the same compound?
Its value is 3398 CPM and 3538 CPM.

And the “Accumulation (counts per minute; CPM) with AMP” value (MRP3; conc 16.67 µM)?
Its value is 238 CPM and 245 CPM.

What about the “Accumulation (counts per minute; CPM) with ATP” value (MRP3; conc 16.67 µM) of the same compound?
Its value is 2701 CPM and 2568 CPM.

And the “Accumulation (counts per minute; CPM) with AMP” value (MRP3; conc 50.00 µM)?
Its value is 232 CPM and 210 CPM.

And the “Accumulation (counts per minute; CPM) with ATP” value (MRP3; conc 50.00 µM)?
The value was 1204 CPM and 1302 CPM.

What about the “oxygen consumption rate, mito stress tracing” value (HepG2 cells; Fig2 B, HepG2, 0,3 uM, 61.3509 min) of the same compound?
Its value is 201.605.

And the “ECAR (Extracellular Acidification Rate)” value (HepG2 cells; HepG2, 30 uM, replicates)?
Its value is 1.734.

And the “effect on maximal respiratory capacity after FCCP” value (HepG2 cells; HepG2, Seahorse XF)?
The value was “dose-dependent reduction in maximal respiratory capacity”.

And the EC50 (HepG2 cells; Homo sapiens, HepG2, Seahorse XF, read-out: EC50 of acidification of media (ECAR))?
The EC50 was 46 µM.

And the IC50 (OAT1)?
Its IC50 is 34.8 µM.

And the “Accumulation (counts per minute; CPM) HEK293FT-MOCK” value (OAT1; conc 0.10 µM)?
Its value is 34 CPM and 47 CPM.

What about the “Accumulation (counts per minute; CPM) HEK293FT-OAT1” value (OAT1; conc 0.10 µM) of the same compound?
Its value is 3883 CPM and 3843 CPM.

And the “Accumulation (counts per minute; CPM) HEK293FT-MOCK” value (OAT1; conc 0.30 µM)?
Its value is 36 CPM and 29 CPM.

And the “Accumulation (counts per minute; CPM) HEK293FT-OAT1” value (OAT1; conc 0.30 µM)?
Its value is 3654 CPM and 3608 CPM.

And the “Accumulation (counts per minute; CPM) HEK293FT-MOCK” value (OAT1; conc 1.00 µM)?
The value was 32 CPM and 37 CPM.

And the “Accumulation (counts per minute; CPM) HEK293FT-OAT1” value (OAT1; conc 1.00 µM)?
The value was 3568 CPM and 3527 CPM.

And the “Accumulation (counts per minute; CPM) HEK293FT-MOCK” value (OAT1; conc 3.00 µM)?
Its value is 36 CPM and 37 CPM.

And the “Accumulation (counts per minute; CPM) HEK293FT-OAT1” value (OAT1; conc 3.00 µM)?
Its value is 3226 CPM and 3417 CPM.

What about the “Accumulation (counts per minute; CPM) HEK293FT-MOCK” value (OAT1; conc 10.00 µM) of the same compound?
Its value is 34 CPM and 39 CPM.

What about the “Accumulation (counts per minute; CPM) HEK293FT-OAT1” value (OAT1; conc 10.00 µM) of the same compound?
The value was 3074 CPM and 3122 CPM.

And the “Accumulation (counts per minute; CPM) HEK293FT-MOCK” value (OAT1; conc 30.00 µM)?
Its value is 36 CPM and 39 CPM.

What about the “Accumulation (counts per minute; CPM) HEK293FT-OAT1” value (OAT1; conc 30.00 µM) of the same compound?
The value was 1739 CPM and 1807 CPM.

What about the “Accumulation (counts per minute; CPM) HEK293FT-MOCK” value (OAT1; conc 100.00 µM) of the same compound?
The value was 33 CPM and 31 CPM.

What about the “Accumulation (counts per minute; CPM) HEK293FT-OAT1” value (OAT1; conc 100.00 µM) of the same compound?
The value was 496 CPM and 493 CPM.

— PMC8459971, “Evaluation of the hepatotoxicity of the novel GPR40 (FFAR1) agonist CPL207280 in the rat and monkey” (PLoS ONE, 2021)
